According to the NIST ThermoML archive (doi:10.1021/je060271a):
Several values for one entry are separate records, joined by “and”; a condition that tells them apart may be missing. Equal values may be shown once.

Conditions: Liquid, Vibrating tube method

CCCCCC(=O)OCC(COC(=O)CCCCC)(COC(=O)CCCCC)COC(=O)CCCCC [pentaerythritol tetrahexanoate]
Conditions	mass density
343.15 K, 29943 kPa	978.1 kg/m3
343.15 K, 29977 kPa	978.2 kg/m3
343.15 K, 30005 kPa	978.1 kg/m3
343.15 K, 30034 kPa	978.2 kg/m3
343.15 K, 30068 kPa	978.2 kg/m3
343.15 K, 34037 kPa	980.7 kg/m3 and 980.8 kg/m3
343.15 K, 34038 kPa	980.6 kg/m3
343.15 K, 34070 kPa	980.7 kg/m3
343.15 K, 34080 kPa	980.7 kg/m3
343.15 K, 34257 kPa	980.8 kg/m3
343.15 K, 34258 kPa	980.9 kg/m3
343.15 K, 34259 kPa	981 kg/m3 and 980.9 kg/m3
343.15 K, 34260 kPa	980.7 kg/m3 and 980.8 kg/m3
343.15 K, 34261 kPa	980.8 kg/m3
343.15 K, 34262 kPa	980.8 kg/m3 and 980.9 kg/m3
343.15 K, 34263 kPa	980.7 kg/m3
343.15 K, 34264 kPa	980.9 kg/m3 and 980.8 kg/m3
343.15 K, 34271 kPa	980.8 kg/m3
343.15 K, 34272 kPa	980.9 kg/m3
343.15 K, 34279 kPa	980.9 kg/m3 and 981 kg/m3
343.15 K, 34280 kPa	980.8 kg/m3 and 980.9 kg/m3
343.15 K, 34281 kPa	980.9 kg/m3
343.15 K, 34282 kPa	980.8 kg/m3 and 980.9 kg/m3
343.16 K, 205.2 kPa	957.2 kg/m3
343.16 K, 205.3 kPa	957.3 kg/m3
343.16 K, 205.5 kPa	957.1 kg/m3 and 957.3 kg/m3
343.16 K, 205.7 kPa	957.3 kg/m3
343.16 K, 205.9 kPa	957.3 kg/m3 and 957.2 kg/m3
343.16 K, 206 kPa	957.2 kg/m3 and 957.3 kg/m3
343.16 K, 206.2 kPa	957.2 kg/m3 and 957.3 kg/m3
343.16 K, 206.4 kPa	957.3 kg/m3 and 957.2 kg/m3
343.16 K, 206.6 kPa	957.2 kg/m3
343.16 K, 206.7 kPa	957.2 kg/m3
343.16 K, 207.1 kPa	957.3 kg/m3
343.16 K, 207.4 kPa	957.3 kg/m3 and 957.1 kg/m3
343.16 K, 207.6 kPa	957.2 kg/m3 and 957.1 kg/m3
343.16 K, 207.8 kPa	957.3 kg/m3
343.16 K, 207.9 kPa	957.3 kg/m3 and 957.2 kg/m3
343.16 K, 208 kPa	957.1 kg/m3 and 957.3 kg/m3
343.16 K, 208.1 kPa	957.2 kg/m3 and 957.3 kg/m3
343.16 K, 208.5 kPa	957.4 kg/m3 and 957.2 kg/m3 and 957.3 kg/m3
343.16 K, 208.6 kPa	957.2 kg/m3 and 957.1 kg/m3
343.16 K, 208.7 kPa	957.2 kg/m3
343.16 K, 209.9 kPa	957.1 kg/m3
343.16 K, 210 kPa	957.4 kg/m3 and 957.2 kg/m3
343.16 K, 210.2 kPa	957.4 kg/m3
343.16 K, 210.4 kPa	957.2 kg/m3
343.16 K, 210.6 kPa	957.2 kg/m3
343.16 K, 210.9 kPa	957.2 kg/m3
343.16 K, 211.1 kPa	957.3 kg/m3 and 957.2 kg/m3
343.16 K, 211.3 kPa	957.2 kg/m3 and 957.3 kg/m3
343.16 K, 211.4 kPa	957.3 kg/m3
343.16 K, 211.6 kPa	957.2 kg/m3
343.16 K, 211.8 kPa	957.2 kg/m3
343.16 K, 211.9 kPa	957.4 kg/m3 and 957.2 kg/m3 and 957.5 kg/m3
343.16 K, 212.1 kPa	957 kg/m3
343.16 K, 212.3 kPa	957.3 kg/m3
343.16 K, 212.6 kPa	957.3 kg/m3
343.16 K, 214.2 kPa	957.2 kg/m3 and 957.4 kg/m3
343.16 K, 214.4 kPa	957.2 kg/m3
343.16 K, 214.5 kPa	957.3 kg/m3
343.16 K, 214.6 kPa	957.2 kg/m3
343.16 K, 214.7 kPa	957.2 kg/m3
343.16 K, 214.9 kPa	957.3 kg/m3 and 957.2 kg/m3
343.16 K, 215.1 kPa	957.2 kg/m3
343.16 K, 215.8 kPa	957.2 kg/m3
343.16 K, 216.1 kPa	957.3 kg/m3 and 957.1 kg/m3
343.16 K, 216.3 kPa	957.3 kg/m3 and 957.4 kg/m3
343.16 K, 216.8 kPa	957.4 kg/m3
343.16 K, 217 kPa	957.3 kg/m3 and 957.2 kg/m3
343.16 K, 217.5 kPa	957.4 kg/m3 and 957.3 kg/m3
343.16 K, 217.7 kPa	957.1 kg/m3 and 957.5 kg/m3 and 957.2 kg/m3
343.16 K, 217.9 kPa	957.3 kg/m3 and 957.2 kg/m3
343.16 K, 218 kPa	957.2 kg/m3 and 957.3 kg/m3
343.16 K, 218.2 kPa	957.3 kg/m3 and 957.2 kg/m3
343.16 K, 218.6 kPa	957.3 kg/m3 and 957.2 kg/m3
343.16 K, 218.7 kPa	957.4 kg/m3
343.16 K, 219.6 kPa	957.3 kg/m3
343.16 K, 219.8 kPa	957.3 kg/m3
343.16 K, 221 kPa	957.2 kg/m3
343.16 K, 221.2 kPa	957.2 kg/m3 and 957.3 kg/m3
343.16 K, 221.3 kPa	957.3 kg/m3
343.16 K, 221.5 kPa	957.2 kg/m3
343.16 K, 221.7 kPa	957.1 kg/m3 and 957.3 kg/m3
343.16 K, 221.9 kPa	957.2 kg/m3
343.16 K, 222.1 kPa	957.3 kg/m3
343.16 K, 222.2 kPa	957.3 kg/m3 and 957.2 kg/m3
343.16 K, 222.4 kPa	957.3 kg/m3
343.16 K, 222.6 kPa	957.3 kg/m3 and 957.2 kg/m3
343.16 K, 224.6 kPa	957.2 kg/m3
343.16 K, 224.8 kPa	957.1 kg/m3
343.16 K, 225.2 kPa	957.3 kg/m3
343.16 K, 225.5 kPa	957.3 kg/m3 and 957.2 kg/m3
343.16 K, 225.7 kPa	957.2 kg/m3
343.16 K, 226 kPa	957.2 kg/m3
343.16 K, 226.2 kPa	957.2 kg/m3
343.16 K, 226.4 kPa	957.1 kg/m3
343.16 K, 226.6 kPa	957.3 kg/m3
343.16 K, 226.7 kPa	957.2 kg/m3
343.16 K, 227.3 kPa	957.3 kg/m3
343.16 K, 227.4 kPa	957.3 kg/m3
343.16 K, 227.6 kPa	957.3 kg/m3
343.16 K, 227.8 kPa	957.3 kg/m3
343.16 K, 227.9 kPa	957.2 kg/m3
343.16 K, 228 kPa	957.3 kg/m3 and 957.2 kg/m3
343.16 K, 228.1 kPa	957.4 kg/m3
343.16 K, 228.3 kPa	957.1 kg/m3 and 957.2 kg/m3
343.16 K, 228.8 kPa	957.2 kg/m3 and 957.3 kg/m3
343.16 K, 229 kPa	957.3 kg/m3
343.16 K, 229.2 kPa	957.3 kg/m3 and 957.2 kg/m3
343.16 K, 229.3 kPa	957.2 kg/m3
343.16 K, 229.7 kPa	957.1 kg/m3 and 957.3 kg/m3
343.16 K, 229.9 kPa	957.3 kg/m3
343.16 K, 230.1 kPa	957.4 kg/m3
343.16 K, 230.4 kPa	957.3 kg/m3
343.16 K, 230.6 kPa	957.2 kg/m3
343.16 K, 230.7 kPa	957.2 kg/m3
343.16 K, 230.9 kPa	957.3 kg/m3
343.16 K, 231.4 kPa	957.1 kg/m3
343.16 K, 239.3 kPa	957.2 kg/m3
343.16 K, 239.4 kPa	957.2 kg/m3
343.16 K, 239.6 kPa	957.3 kg/m3
343.16 K, 239.8 kPa	957.2 kg/m3
343.16 K, 239.9 kPa	957.3 kg/m3
343.16 K, 241.9 kPa	957.3 kg/m3
343.16 K, 246.2 kPa	957.2 kg/m3
343.16 K, 246.5 kPa	957.2 kg/m3
343.16 K, 246.9 kPa	957.2 kg/m3
343.16 K, 247.1 kPa	957.2 kg/m3
343.16 K, 247.2 kPa	957.3 kg/m3
343.16 K, 247.4 kPa	957.3 kg/m3
343.16 K, 247.6 kPa	957.2 kg/m3 and 957.3 kg/m3
343.16 K, 247.8 kPa	957.2 kg/m3 and 957.3 kg/m3
343.16 K, 247.9 kPa	957.4 kg/m3 and 957.3 kg/m3
343.16 K, 248.1 kPa	957.4 kg/m3
343.16 K, 248.3 kPa	957.3 kg/m3
343.16 K, 248.6 kPa	957.3 kg/m3
343.16 K, 248.8 kPa	957.3 kg/m3 and 957.2 kg/m3
343.16 K, 249 kPa	957.2 kg/m3
343.16 K, 249.2 kPa	957.2 kg/m3
343.16 K, 249.8 kPa	957.2 kg/m3
343.16 K, 250.4 kPa	957.2 kg/m3
343.16 K, 250.6 kPa	957.3 kg/m3
343.16 K, 250.7 kPa	957.1 kg/m3
343.16 K, 250.9 kPa	957.3 kg/m3 and 957.2 kg/m3
